In patent US6908935B2, “Calcium receptor modulating agents” (Amgen Inc., priority 2002, dated 2005):

Biological target: T1, human parathyroid cell Ca^2+ receptor (hPCaR) (Homo sapiens, UniProt P41180)
T1 construct: expressed in transfected cells
T1 sequence (P41180 20-1078): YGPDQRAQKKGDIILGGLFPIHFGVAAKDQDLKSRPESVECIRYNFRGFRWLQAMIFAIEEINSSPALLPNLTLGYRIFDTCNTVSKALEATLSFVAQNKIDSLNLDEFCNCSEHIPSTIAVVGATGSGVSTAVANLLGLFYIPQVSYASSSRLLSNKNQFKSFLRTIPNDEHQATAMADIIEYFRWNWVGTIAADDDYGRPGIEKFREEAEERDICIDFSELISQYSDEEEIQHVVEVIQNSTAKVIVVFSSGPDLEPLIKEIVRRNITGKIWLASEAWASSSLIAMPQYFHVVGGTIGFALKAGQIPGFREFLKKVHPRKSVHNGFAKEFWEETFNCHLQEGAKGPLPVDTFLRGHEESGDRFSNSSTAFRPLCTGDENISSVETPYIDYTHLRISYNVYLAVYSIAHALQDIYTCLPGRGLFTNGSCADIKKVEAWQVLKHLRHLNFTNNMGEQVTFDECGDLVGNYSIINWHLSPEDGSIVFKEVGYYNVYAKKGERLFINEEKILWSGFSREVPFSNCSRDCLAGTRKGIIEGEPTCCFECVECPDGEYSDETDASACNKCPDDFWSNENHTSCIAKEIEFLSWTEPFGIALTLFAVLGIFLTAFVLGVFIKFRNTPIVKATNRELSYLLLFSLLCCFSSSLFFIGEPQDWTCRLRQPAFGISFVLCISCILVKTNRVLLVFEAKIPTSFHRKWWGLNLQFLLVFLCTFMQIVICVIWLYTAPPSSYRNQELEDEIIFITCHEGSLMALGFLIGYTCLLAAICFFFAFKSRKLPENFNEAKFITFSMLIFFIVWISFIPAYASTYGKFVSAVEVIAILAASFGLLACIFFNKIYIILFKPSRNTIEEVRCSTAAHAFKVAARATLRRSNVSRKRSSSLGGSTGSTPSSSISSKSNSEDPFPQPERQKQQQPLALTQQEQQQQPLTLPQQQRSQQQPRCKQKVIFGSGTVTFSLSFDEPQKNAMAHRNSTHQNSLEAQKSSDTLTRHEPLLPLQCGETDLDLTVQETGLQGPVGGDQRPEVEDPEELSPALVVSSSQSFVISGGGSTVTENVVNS
Experiment: [Ca2+]i measurement with fluo-3 in HEK 293 4.0-7 cells stably transfected with hPCaR
Type: cell-based
Details: fluo-3 fluorescence (485/530 nm), effect on [Ca^2+]i
Method in brief: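 Cytosolic [Ca2+] was read as fluo-3 fluorescence (ex 485/em 530 nm) after compound addition to washed cells. Cells were hPCaR-transfected HEK 293 clone 7, dye-loaded 30 min at 37 °C with 2 μM fluo-3 acetoxymethyl ester in HEPES-buffered saline pH 7.45 containing 1 mM CaCl2 and 0.5% BSA.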

Structure (SMILES) | EC50 [µM]
C[C@@H](NCc1ccc(Cl)c(-c2cccnc2)c1)c1ccccc1 [Example 434, (1R)-N-((4-chloro-3-(3-pyridinyl)phenyl)methyl)-1-phenylethanamine] | ≤ 10
COc1cccc([C@@H](C)NCc2ccc(OC)c(-c3ccc(S(C)(=O)=O)cc3)c2)c1 [(1R)-N-((6-(methyloxy)-4′-(methylsulfonyl)-1,1′-biphenyl-3-yl)methyl)-1-(3-(methyloxy)phenyl)ethanamine] | ≤ 10
COc1ccc(CN[C@H](C)c2ccccc2)cc1-c1ccc(N(C)C)nc1 [N,N-dimethyl-5-(2-(methyloxy)-5-((((1R)-1-phenylethyl)amino)methyl)phenyl)-2-pyridinamine] | ≤ 10
CC(=O)Nc1ccc(-c2cccc(CN[C@H](C)c3ccccc3)c2)cn1 [Example 250, N-(5-(3-((((1R)-1-phenylethyl)amino)methyl)phenyl)-2-pyridinyl)acetamide] | ≤ 10
C[C@@H](NCc1cccc(-c2ccc3c(c2)OCO3)c1)c1ccccc1 [(1R)-N-((3-(1,3-benzodioxol-5-yl)phenyl)methyl)-1-phenylethanamine] | ≤ 10
COc1cccc([C@@H](C)NCc2ccc(OC)c(-c3cccnc3)c2)c1 [(1R)-1-(3-(methyloxy)phenyl)-N-((4-(methyloxy)-3-(3-pyridinyl)phenyl)methyl)ethanamine] | ≤ 10
COc1ccc(CN[C@H](C)c2ccccc2)cc1-c1ccc2c(c1)ncn2C [(1R)-N-((3-(1-methyl-1H-benzimidazol-5-yl)-4-(methyloxy)phenyl)methyl)-1-phenylethanamine] | ≤ 10
C[C@@H](NCc1cccc(-c2cncc(C(N)=O)c2)c1)c1cccc2ccccc12 [Example 460, 5-(3-((((1R)-1-(1-naphthalenyl)ethyl)amino)methyl)phenyl)-3-pyridinecarboxamide] | ≤ 10
COc1ccc(CN[C@H](C)c2cccc3ccccc23)cc1-c1nnc(C(F)(F)F)o1 [(1R)-N-((4-(methyloxy)-3-(5-(trifluoromethyl)-1,3,4-oxadiazol-2-yl)phenyl)methyl)-1-(1-naphthalenyl)ethanamine] | ≤ 10
COc1cccc([C@@H](C)NCc2ccc(OC)c(-c3ccc(C(=O)N(C)C)cc3)c2)c1 [N,N-dimethyl-2′-(methyloxy)-5′-((((1R)-1-(3-(methyloxy)phenyl)ethyl)amino)methyl)-1,1′-biphenyl-4-carboxamide] | ≤ 10
COc1ccc(CN[C@H](C)c2ccccc2)cc1-c1nnc(C(F)(F)F)o1 [(1R)-N-((4-(methyloxy)-3-(5-(trifluoromethyl)-1,3,4-oxadiazol-2-yl)phenyl)methyl)-1-phenylethanamine] | ≤ 10
Cc1ccc([C@@H](C)NCc2cccc(-c3ncnc4c3ncn4C)c2)cc1 [Example 241, (1R)-1-(4-methylphenyl)-N-((3-(9-methyl-9H-purin-6-yl)phenyl)methyl)ethanamine] | ≤ 10
COc1cccc([C@@H](C)NCc2ccc(OC)c(-c3cccs3)c2)c1 [(1R)-1-(3-(methyloxy)phenyl)-N-((4-(methyloxy)-3-(2-thienyl)phenyl)methyl)ethanamine] | ≤ 10
COc1ccc([C@@H](C)NCc2ccc(OC)c(-c3ccc(F)cc3)c2)cc1 [(1R)-N-((4′-fluoro-6-(methyloxy)-1,1′-biphenyl-3-yl)methyl)-1-(4-(methyloxy)phenyl)ethanamine] | ≤ 10
C[C@@H](NCc1cccc(-c2nccs2)c1)c1ccccc1 [Example 218, (1R)-1-phenyl-N-((3-(1,3-thiazol-2-yl)phenyl)methyl)ethanamine] | ≤ 10
COc1ccc(CN[C@H](C)c2ccccc2)cc1-c1ccc(C(F)(F)F)cc1 [(1R)-N-((6-(methyloxy)-4′-(trifluoromethyl)-1,1′-biphenyl-3-yl)methyl)-1-phenylethanamine] | ≤ 10
COc1ccc(CN[C@H](C)c2ccc3ccccc3c2)cc1-c1cnccn1 [(1R)-N-((4-(methyloxy)-3-(2-pyrazinyl)phenyl)methyl)-1-(2-naphthalenyl)ethanamine] | ≤ 10
COc1ccc(CN[C@H](C)c2ccccc2)cc1-c1ccc(OC(F)(F)F)cc1 [(1R)-N-((6-(methyloxy)-4′-((trifluoromethyl)oxy)-1,1′-biphenyl-3-yl)methyl)-1-phenylethanamine] | ≤ 10

Structure (SMILES) | EC50 [µM]
C[C@@H](NCc1ccc(F)c(-c2ccc(F)cc2)c1)c1ccccc1 [Example 251, (1R)-N-((4′,6-difluoro-1,1′-biphenyl-3-yl)methyl)-1-phenylethanamine] | ≤ 10
C[C@@H](NCc1ccc(Cl)c(-c2cccnc2)c1)c1cccc2ccccc12 [Example 435, (1R)-N-((4-chloro-3-(3-pyridinyl)phenyl)methyl)-1-(1-naphthalenyl)ethanamine] | ≤ 10
COc1ccc(CN[C@H](C)c2cccc3ccccc23)cc1-c1ccc2ccccc2c1 [(1R)-N-((4-(methyloxy)-3-(2-naphthalenyl)phenyl)methyl)-1-(1-naphthalenyl)ethanamine] | ≤ 10
COc1ccc(-c2cc(CN[C@H](C)c3cccc(OC)c3)ccc2NS(C)(=O)=O)cc1 [N-(4′-(methyloxy)-5-((((1R)-1-(3-(methyloxy)phenyl)ethyl)amino)methyl)-1,1′-biphenyl-2-yl)methanesulfonamide] | ≤ 10
COc1ccc([C@@H](C)NCc2cccc(-c3cccc(OC)c3)c2)cc1 [(1R)-N-((3′-(methyloxy)-1,1′-biphenyl-3-yl)methyl)-1-(4-(methyloxy)phenyl)ethanamine] | ≤ 10
COc1ccc(CN[C@H](C)c2ccccc2)cc1-c1csc(N2CCCCC2)n1 [(1R)-N-((4-(methyloxy)-3-(2-(1-piperidinyl)-1,3-thiazol-4-yl)phenyl)methyl)-1-phenylethanamine] | ≤ 10
COc1ccc(CN[C@H](C)c2ccccc2)cc1-c1nccs1 [(1R)-N-((4-(methyloxy)-3-(1,3-thiazol-2-yl)phenyl)methyl)-1-phenylethanamine] | ≤ 10
COc1ccc(-c2cc(CN[C@H](C)c3ccccc3)ccc2O)cc1 [Example 391, 4′-(methyloxy)-5-((((1R)-1-phenylethyl)amino)methyl)-1,1′-biphenyl-2-ol] | ≤ 10
COc1cccc([C@@H](C)NCc2cccc(-c3ccccn3)c2)c1 [(1R)-1-(3-(methyloxy)phenyl)-N-((3-(2-pyridinyl)phenyl)methyl)ethanamine] | ≤ 10
CCOc1ccc(-c2cc(CN[C@H](C)c3ccccc3)ccc2OC)cn1 [(1R)-N-((3-(6-(ethyloxy)-3-pyridinyl)-4-(methyloxy)phenyl)methyl)-1-phenylethanamine] | ≤ 10
COc1ccc(CN[C@H](C)c2ccc(C)cc2)cc1-c1cncnc1 [(1R)-N-((4-(methyloxy)-3-(5-pyrimidinyl)phenyl)methyl)-1-(4-methylphenyl)ethanamine] | ≤ 10
COc1cccc([C@@H](C)NCc2ccc(OC)c(-c3ccc4[nH]ccc4c3)c2)c1 [(1R)-N-((3-(1H-indol-5-yl)-4-(methyloxy)phenyl)methyl)-1-(3-(methyloxy)phenyl)ethanamine] | ≤ 10
COc1ccc(CNC(C)c2cccc(C)c2)cc1-c1ccc(C(F)(F)F)cc1 (centres unmarked) [N-((6-(methyloxy)-4′-(trifluoromethyl)-1,1′-biphenyl-3-yl)methyl)-1-(3-methylphenyl)ethanamine] | ≤ 10
COc1ccc([C@@H](C)NCc2cccc(-c3ccc(OC)nn3)c2)cc1 [(1R)-1-(4-(methyloxy)phenyl)-N-((3-(6-(methyloxy)-3-pyridazinyl)phenyl)methyl)ethanamine] | ≤ 10
COc1cccc([C@@H](C)NCc2ccc(OC)c(-c3nccs3)c2)c1 [(1R)-1-(3-(methyloxy)phenyl)-N-((4-(methyloxy)-3-(1,3-thiazol-2-yl)phenyl)methyl)ethanamine] | ≤ 10
COc1ccc(CN[C@H](C)c2cccc3ccccc23)cc1-c1ccc2c(c1)CCO2 [(1R)-N-((3-(2,3-dihydro-1-benzofuran-5-yl)-4-(methyloxy)phenyl)methyl)-1-(1-naphthalenyl)ethanamine] | ≤ 10
COc1ccc(CN[C@H](C)c2cccc3ccccc23)cc1-c1ccc(=O)n(C)c1 [1-methyl-5-(2-(methyloxy)-5-((((1R)-1-(1-naphthalenyl)ethyl)amino)methyl)phenyl)-2-(1H)-pyridinone] | ≤ 10
